pIC50: −log10 of the molar value. “Also recorded” adds a separate entry of the source.
Key:
SARS-CoV 3CLpro = SARS-CoV 3CLpro (Severe acute respiratory syndrome coronavirus, UniProt P0C6X7); assay: biochemical; assay type: biochemical
SARS-CoV-2 3CLpro = SARS-CoV-2 3CLpro (Severe acute respiratory syndrome coronavirus 2, UniProt P0DTD1); assay: biochemical; assay type: biochemical
[1] = system: SARS-CoV-2 in infected Vero cells; conditions: cited from earlier work

| Compound | pIC50 (SARS-CoV 3CLpro) | inhibitory effect in library screening against SARS-CoV 3CLpro (in words) (SARS-CoV 3CLpro) | inhibitory effect in library screening against SARS-CoV-2 3CLpro (in words) (SARS-CoV-2 3CLpro) | further results |
| --- | --- | --- | --- | --- |
| Nc1ccn(C[C@@H](CO)OCP(=O)(O)O)c(=O)n1 [cidofovir, Cidofovir] | < 4.33 |  |  | pIC50 (SARS-CoV-2 3CLpro): < 4.44 |
| CCN(CC)CCCC(C)Nc1ccnc2cc(Cl)ccc12 (centres unmarked) [No 6-5, Chloroquine] |  | little | little |  |
| C=C1[C@H](CO)[C@@H](O)C[C@@H]1n1cnc2c(=O)[nH]c(N)nc21 [No 4-3, Entecavir] |  | little | little |  |
| CCN(CCO)CCCC(C)Nc1ccnc2cc(Cl)ccc12 (centres unmarked) [No 6-6, Hydroxychloroquine] |  | little | little |  |
| CC(C)c1nc(CN(C)C(=O)N[C@H](C(=O)N[C@@H](Cc2ccccc2)C[C@H](O)[C@H](Cc2ccccc2)NC(=O)OCc2cncs2)C(C)C)cs1 [ritonavir, Ritonavir] |  |  | did not block the proteolytic activity; also recorded: did not show clear inhibitory activity |  |
| Nc1nc(O)c2ncn(COC(CO)CO)c2n1 [No 1-3, Ganciclovir] |  | little | little |  |
| C[C@H](Cn1cnc2c(N)ncnc21)OCP(=O)(O)O [tenofovir, Tenofovir] | 4.85 |  |  | killing of SARS-CoV-2 in infected Vero cells [1]: kill SARS-CoV-2 |
| CN1CC(=O)N2[C@H](c3ccc4c(c3)OCO4)c3[nH]c4ccccc4c3C[C@@H]2C1=O [tadalafil, Tadalafil] |  | did not display meaningful inhibitory activity | did not display meaningful inhibitory activity |  |
| CC(C)OC(=O)[C@H](C)N[P@](=O)(OC[C@H]1O[C@@H](n2ccc(=O)[nH]c2=O)[C@](C)(F)[C@@H]1O)Oc1ccccc1 [No 2-3, Sofosbuvir] |  | little | little |  |
| CCC(CC)COC(=O)[C@H](C)N[P@](=O)(OC[C@H]1O[C@@](C#N)(c2ccc3c(N)ncnn23)[C@H](O)[C@@H]1O)Oc1ccccc1 [remdesivir, Remdesivir] |  |  | minor inhibitory activity |  |
| CCCc1nn(C)c2c(=O)[nH]c(-c3cc(S(=O)(=O)N4CCN(C)CC4)ccc3OCC)nc12 [sildenafil, Sildenafil] | 4.90 |  |  | pIC50 (SARS-CoV-2 3CLpro): 5.08 |
| Nc1nc(NC2CC2)c2ncn([C@H]3C=C[C@@H](CO)C3)c2n1 [abacavir, Abacavir] | 4.61 |  |  | pIC50 (SARS-CoV-2 3CLpro): 4.90 |
| CC(C)(C)NC(=O)[C@@H]1CN(Cc2cccnc2)CCN1C[C@@H](O)C[C@@H](Cc1ccccc1)C(=O)N[C@H]1c2ccccc2C[C@H]1O [indinavir, Indinavir] | 4.50 |  |  |  |
| Nc1ccn([C@@H]2CS[C@H](CO)O2)c(=O)n1 [No 4-4, Lamivudine] |  | little | little |  |
| Cc1cccc(C)c1OCC(=O)N[C@@H](Cc1ccccc1)[C@@H](O)C[C@H](Cc1ccccc1)NC(=O)[C@H](C(C)C)N1CCCNC1=O [Lopinavir] |  |  | did not block the proteolytic activity |  |

— publication PMC8065850 (Microorganisms, 2021)
